Results from ChEMBL document CHEMBL1159306, “Juncenolide A, a new briarane from the Taiwanese Gorgonian Junceella juncea” (J Nat Prod, 2002).
≈ marks a conversion by molar mass, not a printed value.

What was measured:
[1] = Cytotoxicity against human KB16 cells; assay type: functional, cell-based
[2] = Cytotoxicity against human DLD cells; assay type: functional, cell-based

## C=C1CC[C@H](OC(=O)C(C)C)[C@@]2(C)[C@@H](OC(C)=O)CC[C@@]3(CO3)[C@@H]2[C@H](OC(C)=O)[C@]2(O)[C@@H](C)C(=O)O[C@H]2[C@H]1Cl [JUNCENOLIDE A]
[1]
  IC50: 5.9 µg/mL (≈ 10.3 µM)
[2]
  IC50: 3.4 µg/mL (≈ 5.95 µM)
